According to patent US10370343B2, “[6,6] Fused bicyclic HDAC8 inhibitors” (FORMA Therapeutics, Inc., priority 2015, dated 2019):
pIC50: −log10 of the molar value.

biological target: T1, Recombinant N-terminal GST tag full-length human HDAC8 (Homo sapiens, UniProt Q9BY41); assay: HDAC8 probe binding assay, time resolved fluorescence (TRF) format; details: compounds grouped by IC50 range (Table 2)
T1 construct: Recombinant N-terminal GST tag full-length human HDAC8; purchased SignalChem H90-30G-1000; host or cells: baculovirus in Sf9 insect cells
T1 sequence (Q9BY41 1-377): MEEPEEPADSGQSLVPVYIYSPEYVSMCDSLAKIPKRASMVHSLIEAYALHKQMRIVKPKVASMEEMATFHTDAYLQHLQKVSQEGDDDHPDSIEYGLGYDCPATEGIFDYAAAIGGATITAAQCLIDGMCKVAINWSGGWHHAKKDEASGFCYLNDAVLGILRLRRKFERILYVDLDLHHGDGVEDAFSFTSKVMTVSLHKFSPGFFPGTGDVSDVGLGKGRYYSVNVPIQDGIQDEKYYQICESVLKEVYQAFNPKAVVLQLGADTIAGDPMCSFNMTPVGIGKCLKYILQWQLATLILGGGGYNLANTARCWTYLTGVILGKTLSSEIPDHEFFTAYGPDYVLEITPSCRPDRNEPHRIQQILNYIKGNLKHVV
Procedure: The HDAC8 probe binding assay was performed using a time resolved fluorescence (TRF) assay format. Recombinant N-terminal GST tag full-length human HDAC8 was expressed and purified from baculovirus in Sf9 insect cells (SignalChem, #[…]-1000). […] Plates were incubated for 16 hours at room temperature before time resolved fluorescence was read on the Envision (Excitation at 340 nm, and Emission at 485 nm and 535 nm, Perkin Elmer). Data from HDAC8 Assays were reported as percent inhibition (inh) compared with control wells based on the following equation: % inh=1-((FLU-AveLow)/(AveHigh-AveLow)) where FLU=measured time resolved fluorescence. AveLow=average time resolved fluorescence of no enzyme control (n=32). AveHigh=average time resolved fluorescence of DMSO control (n=32). IC50 values were determined by curve fitting of the standard 4 parameter logistic fitting algorithm included in the Activity Base software package: IDBS XE Designer Model205. Data is fitted using the Levenburg Marquardt algorithm. Ranges of IC50 values for compounds of the invention are disclosed in Table 2: Table 2. provides the compounds arranged according to […] determined in a time resolved fluorescence (TRF) assay. The compounds are separated into four groups: […]

Row | SMILES | pIC50
1 | COc1ccc2nc(CN3C(=O)COc4ccc(C(=O)NO)cc43)sc2n1 [Compound I-211, N-hydroxy-4-((5-methoxythiazolo[5,4-b]pyridin-2-yl)methyl)-3-oxo-3,4-dihydro-2H-benzo[b][1,4]oxazine-6-carboxamide] | ≥ 7.60
2 | CC1(C)Oc2ccc(C(=O)NO)cc2N(Cc2nc3ccc(Cl)cc3o2)C1=O [Compound I-294, 4-((6-chlorobenzo[d]oxazol-2-yl)methyl)-N-hydroxy-2,2-dimethyl-3-oxo-3,4-dihydro-2H-benzo[b][1,4]oxazine-6-carboxamide] | ≥ 7.60
3 | Cc1cnc2sc(CN3C(=O)COc4ccc(C(=O)NO)cc43)nc2c1 [Compound I-207, N-hydroxy-4-((6-methylthiazolo[5,4-b]pyridin-2-yl)methyl)-3-oxo-3,4-dihydro-2H-benzo[b][1,4]oxazine-6-carboxamide] | ≥ 7.60
4 | O=C(NO)c1ccc2c(c1)N(CC1CCN(c3ccccc3)CC1)C(=O)CO2 [Compound I-198, N-hydroxy-3-oxo-4-((1-phenylpiperidin-4-yl)methyl)-3,4-dihydro-2H-benzo[b][1,4]oxazine-6-carboxamide] | 7.00 to 7.60
5 | CC1(C)Oc2ccc(C(=O)NO)cc2N(Cc2nc3ccc(F)cc3o2)C1=O [Compound I-291, 4-((6-fluorobenzo[d]oxazol-2-yl)methyl)-N-hydroxy-2,2-dimethyl-3-oxo-3,4-dihydro-2H-benzo[b][1,4]oxazine-6-carboxamide] | ≥ 7.60
6 | O=C(NO)c1ccc2c(c1)N(Cc1ccc(C(F)(F)F)c(F)c1)C(=O)CO2 [Compound I-266, 4-(3-fluoro-4-(trifluoromethyl)benzyl)-N-hydroxy-3-oxo-3,4-dihydro-2H-benzo[b][1,4]oxazine-6-carboxamide] | ≥ 7.60
7 | CC1(C)Oc2ccc(C(=O)NO)cc2N(Cc2nc(-c3ccccc3)sc2Cl)C1=O [Compound I-308, 4-((5-chloro-2-phenylthiazol-4-yl)methyl)-N-hydroxy-2,2-dimethyl-3-oxo-3,4-dihydro-2H-benzo[b][1,4]oxazine-6-carboxamide] | 7.00 to 7.60
8 | O=C(NO)c1ccc2c(c1)N(Cc1nc3ccc(Cl)cc3o1)C(=O)CO2 [Compound I-287, 4-((6-chlorobenzo[d]oxazol-2-yl)methyl)-N-hydroxy-3-oxo-3,4-dihydro-2H-benzo[b][1,4]oxazine-6-carboxamide] | ≥ 7.60
9 | O=C(NO)c1ccc2c(c1)N(Cc1nc3ccc(C(F)(F)F)cc3o1)C(=O)CO2 [Compound I-233, N-hydroxy-3-oxo-4-((6-(trifluoromethyl)benzo[d]oxazol-2-yl)methyl)-3,4-dihydro-2H-benzo[b][1,4]oxazine-6-carboxamide] | ≥ 7.60
10 | O=C(NO)c1ccc2c(c1)N(Cc1coc(-c3ccccc3)n1)C(=O)CO2 [Compound I-179, N-hydroxy-3-oxo-4-((2-phenyloxazol-4-yl)methyl)-3,4-dihydro-2H-benzo[b][1,4]oxazine-6-carboxamide] | ≥ 7.60
11 | CC(C)NC(=O)c1ccc(CN2C(=O)COc3ccc(C(=O)NO)cc32)cc1 [Compound I-369, N-hydroxy-4-(4-(isopropylcarbamoyl)benzyl)-3-oxo-3,4-dihydro-2H-benzo[b][1,4]oxazine-6-carboxamide] | 7.00 to 7.60
12 | O=C(NO)c1ccc2c(c1)N(Cc1cccc(Cl)c1F)C(=O)CO2 [Compound I-340, 4-(3-chloro-2-fluorobenzyl)-N-hydroxy-3-oxo-3,4-dihydro-2H-benzo[b][1,4]oxazine-6-carboxamide] | ≥ 7.60
13 | O=C(NO)c1ccc2c(c1)N(Cc1n[nH]c3ccccc13)C(=O)CO2 [Compound I-203, 4-((1H-indazol-3-yl)methyl)-N-hydroxy-3-oxo-3,4-dihydro-2H-benzo[b][1,4]oxazine-6-carboxamide] | 7.00 to 7.60
14 | N#Cc1c(CN2C(=O)COc3ccc(C(=O)NO)cc32)cn2ccccc12 [Compound I-201, 4-((1-cyanoindolizin-2-yl)methyl)-N-hydroxy-3-oxo-3,4-dihydro-2H-benzo[b][1,4]oxazine-6-carboxamide] | ≥ 7.60
15 | CN(C)C(=O)c1ccc(CN2C(=O)COc3ccc(C(=O)NO)cc32)cc1 [Compound I-360, 4-(4-(dimethylcarbamoyl)benzyl)-N-hydroxy-3-oxo-3,4-dihydro-2H-benzo[b][1,4]oxazine-6-carboxamide] | 7.00 to 7.60
16 | O=C(NO)c1ccc2c(c1)N(Cc1c[nH]c3ccccc13)C(=O)CO2 [Compound I-200, 4-((1H-indol-3-yl)methyl)-N-hydroxy-3-oxo-3,4-dihydro-2H-benzo[b][1,4]oxazine-6-carboxamide] | 7.00 to 7.60

Row | SMILES | pIC50
17 | CC1(C)Oc2ccc(C(=O)NO)cc2N(Cc2ccccc2OC(F)(F)F)C1=O [Compound I-302, N-hydroxy-2,2-dimethyl-3-oxo-4-(2-(trifluoromethoxy)benzyl)-3,4-dihydro-2H-benzo[b][1,4]oxazine-6-carboxamide] | 7.00 to 7.60
18 | Cc1cccc2nc(CN3C(=O)COc4ccc(C(=O)NO)cc43)cc(=O)n12 [Compound I-327, N-hydroxy-4-((6-methyl-4-oxo-4H-pyrido[1,2-a]pyrimidin-2-yl)methyl)-3-oxo-3,4-dihydro-2H-benzo[b][1,4]oxazine-6-carboxamide] | 7.00 to 7.60
19 | O=C(NO)c1ccc2c(c1)N(Cc1ccc(N3CCCC3=O)cc1)C(=O)CO2 [Compound I-188, N-hydroxy-3-oxo-4-(4-(2-oxopyrrolidin-1-yl)benzyl)-3,4-dihydro-2H-benzo[b][1,4]oxazine-6-carboxamide] | 7.00 to 7.60
20 | CC1(C)Oc2ccc(C(=O)NO)cc2N(Cc2cc(-c3ccccc3)on2)C1=O [Compound I-320, N-hydroxy-2,2-dimethyl-3-oxo-4-((5-phenylisoxazol-3-yl)methyl)-3,4-dihydro-2H-benzo[b][1,4]oxazine-6-carboxamide] | ≥ 7.60
21 | O=C(NO)c1ccc2c(c1)N(Cc1ccc3ccccc3c1)C(=O)CO2 [Compound I-323, N-hydroxy-4-(naphthalen-2-ylmethyl)-3-oxo-3,4-dihydro-2H-benzo[b][1,4]oxazine-6-carboxamide] | ≥ 7.60
22 | O=C(NO)c1ccc2c(c1)N(Cc1cc(Cl)ccc1F)C(=O)CO2 [Compound I-348, 4-(5-chloro-2-fluorobenzyl)-N-hydroxy-3-oxo-3,4-dihydro-2H-benzo[b][1,4]oxazine-6-carboxamide] | ≥ 7.60
23 | O=C(NO)c1ccc2c(c1)N(Cc1ccc(C(=O)N3CCCCC3)cc1)C(=O)CO2 [Compound I-150, N-hydroxy-3-oxo-4-(4-(piperidine-1-carbonyl)benzyl)-3,4-dihydro-2H-benzo[b][1,4]oxazine-6-carboxamide] | 7.00 to 7.60
24 | O=C(NO)c1ccc2c(c1)N(Cc1ccc(C(F)(F)F)cc1Cl)C(=O)CO2 [Compound I-356, 4-(2-chloro-4-(trifluoromethyl)benzyl)-N-hydroxy-3-oxo-3,4-dihydro-2H-benzo[b][1,4]oxazine-6-carboxamide] | ≥ 7.60
25 | N#Cc1ccc(CN2C(=O)COc3ccc(C(=O)NO)cc32)cc1 [Compound I-237, 4-(4-cyanobenzyl)-N-hydroxy-3-oxo-3,4-dihydro-2H-benzo[b][1,4]oxazine-6-carboxamide] | ≥ 7.60
26 | N#Cc1ccc(CN2C(=O)COc3ccc(C(=O)NO)cc32)c(Cl)c1 [Compound I-372, 4-(2-chloro-4-cyanobenzyl)-N-hydroxy-3-oxo-3,4-dihydro-2H-benzo[b][1,4]oxazine-6-carboxamide] | ≥ 7.60
27 | O=C(NO)c1ccc2c(c1)N(Cc1ccc3cccnc3c1)C(=O)CO2 [Compound I-335, N-hydroxy-3-oxo-4-(quinolin-ylmethyl)-3,4-dihydro-2H-benzo[b][1,4]oxazine-6-carboxamide] | ≥ 7.60
28 | CC1(C)Oc2ccc(C(=O)NO)cc2N(Cc2c(Cl)cccc2Cl)C1=O [Compound I-299, 4-(2,6-dichlorobenzyl)-N-hydroxy-2,2-dimethyl-3-oxo-3,4-dihydro-2H-benzo[b][1,4]oxazine-6-carboxamide] | 7.00 to 7.60
29 | Cc1nc2ccc(CN3C(=O)COc4ccc(C(=O)NO)cc43)cc2o1 [Compound I-239, N-hydroxy-4-((2-methylbenzo[d]oxazol-6-yl)methyl)-3-oxo-3,4-dihydro-2H-benzo[b][1,4]oxazine-6-carboxamide] | ≥ 7.60
30 | CC1(C)Oc2ccc(C(=O)NO)cc2N(Cc2ccc(C(F)(F)F)cc2F)C1=O [Compound I-321, 4-(2-fluoro-4-(trifluoromethyl)benzyl)-N-hydroxy-2,2-dimethyl-3-oxo-3,4-dihydro-2H-benzo[b][1,4]oxazine-6-carboxamide] | ≥ 7.60
31 | O=C(NO)c1cc(F)c2c(c1)N(Cc1ccc(-n3cccn3)cc1)C(=O)CO2 [Compound I-164, 4-(4-(1H-pyrazol-1-yl)benzyl)-8-fluoro-N-hydroxy-3-oxo-3,4-dihydro-2H-benzo[b][1,4]oxazine-6-carboxamide] | 7.00 to 7.60
